Values belong to the compound of their own block, whether it stands above or below them.
Tests used:
[1] = target: T1, AEP (Homo sapiens, UniProt Q99538); assay: IC50 assay against pure AEP; format: biochemical
T1 sequence (Q99538 18-323 limits assumed): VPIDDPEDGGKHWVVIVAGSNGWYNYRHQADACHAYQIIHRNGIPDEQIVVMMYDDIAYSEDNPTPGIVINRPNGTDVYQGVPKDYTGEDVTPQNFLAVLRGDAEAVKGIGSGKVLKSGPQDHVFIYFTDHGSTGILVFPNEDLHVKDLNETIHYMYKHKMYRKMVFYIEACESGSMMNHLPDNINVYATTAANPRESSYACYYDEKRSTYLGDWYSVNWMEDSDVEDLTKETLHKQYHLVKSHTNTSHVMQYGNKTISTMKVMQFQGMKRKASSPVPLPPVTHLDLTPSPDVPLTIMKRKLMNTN

[2] = target: cathepsin-L (Homo sapiens, UniProt P07711); assay: Inhibition specificity assay, cathepsin-L; format: biochemical
[3] = test system: CaCo-2 cells; assay: Caco-2 permeability assay; format: in vitro ADME
[4] = test system: major cytochrome P450 isozymes; conditions: cited from earlier work
[5] = in the presence or absence of NADPH; cited from earlier work
[6] = target: T1, AEP; assay: Time course inactivation assay of AEP; format: biochemical; conditions: nonlinear progress curves
[7] = target: T1, AEP; assay: Inhibition kinetics assay of AEP
[8] = target: T2, purified, active AEP (Homo sapiens, UniProt Q99538); assay: SAR analysis: residual activity of purified, active AEP; conditions: 1 μM compound, 50 nM AEP, 5 μM substrate peptide
T2 sequence (Q99538 18-323 limits assumed): T1 sequence (Q99538 18-323 limits assumed)

[9] = test system: MDA-MB-231 cells; assay: In vivo spontaneous metastasis assay; parameters: species or system nude mice; conditions: 42 days
[10] = Toxicity observations in treated tumor-bearing mice; format: in vivo, nude mice; conditions: 3 or 10 mg/kg oral, 42 days
[11] = test system: endogenous MMP-2 cleavage; assay: Gelatin zymography: endogenous MMP-2 cleavage in MDA-MB-231 cells; format: cell-based, human; conditions: MDA-MB-231, 1, 2, 5 and 10 μM
[12] = test system: MDA-MB-231 cells; assay: Cell proliferation/viability; format: cell-based, human; conditions: MDA-MB-231, doses of the MMP-2 cleavage experiment (1-10 μM)

Chain of cathepsin-L (P07711 114-333, species assumed): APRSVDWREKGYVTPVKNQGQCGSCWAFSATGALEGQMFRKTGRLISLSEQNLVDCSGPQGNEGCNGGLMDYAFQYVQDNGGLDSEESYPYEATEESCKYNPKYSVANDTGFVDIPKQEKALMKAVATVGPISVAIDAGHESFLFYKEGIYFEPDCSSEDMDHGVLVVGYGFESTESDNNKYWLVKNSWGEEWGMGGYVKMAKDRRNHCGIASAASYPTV

increased potency against AEP compared to compound 38 [1]: about 2 fold
IC50 against AEP ([1]; 10 μM Cbz-Ala-Ala-Asn-AMC, 50 nM AEP): submicromolar
inhibition of cathepsin-L [2]: able to inhibit
Compound: Cn1c(=O)c2c(nc(S)n2C)n(C)c1=O [38p]

Caco-2 cell permeability (in words) [3]: minimal
binding behaviour from time course inactivation [6]: slow-binding inhibitor
mechanism of inhibition [7]: competitively inhibits
Compound: Cn1c(=O)[nH]c(=O)c2c1nc(S)n2CC(O)COc1ccc(Cl)cc1 (centres unmarked) [compound 38]
inhibition of major cytochrome P450 isozymes [4]: did not significantly inhibit
stability in liver microsomes [5]: stable

loss in activity relative to parent compound 38 [8]: > 2 fold
Compound: Cn1c(=O)[nH]c(=O)c2c1nc(S)n2C[C@H](O)COc1ccccc1 [compound 38k]

Compound: CCn1c(=O)c2c(nc(S)n2C)n(C)c1=O [compound 38u]
inhibition of cathepsin-L [2]: able to inhibit
number of metastatic lung nodules ([9]; 3 mg/kg oral gavage): significantly decreased
lung metastasis (nodules) ([9]; 10 mg/kg oral gavage): almost completely prevented
mammary tumor weight or volume versus control ([9]; 3 or 10 mg/kg oral, data not shown): no significant difference
complete blood count (CBC) versus vehicle [10]: no significant difference
pathological examination of major organs (kidney, liver, bone marrow) [10]: did not exhibit any significant amount of toxicity
size of the liver versus vehicle [10]: remained similar
size of the spleen versus control [10]: slight increase
toxicity by body weight versus control [10]: no significant toxicity
endogenous MMP-2 cleavage [11]: inhibited in a dose-dependent manner
cell viability [12]: not affected

From PMC5871875 (Journal of medicinal chemistry, 2017)
